Measurements from ChEMBL document CHEMBL5620403, “Design, synthesis, activity and molecular dynamics studies of 1,3,4-thiadiazole derivatives as selective allosteric inhibitors of SHP2 for the treatment of cancer” (Eur J Med Chem, 2023).
The source made the active and inactive calls. No cut-off for these calls is given here.

Columns and labels:
[1] = target: T1, Tyrosine-protein phosphatase non-receptor type 11 (Homo sapiens, UniProt Q06124); experiment: Inhibition of full length wild type recombinant human IRS-1 peptide activated SHP2 (1 to 525 residues) using DIPMUP as substrate preincubated for 30 mins followed by substrate addition and measured after 30 mins by fluorescence based analysis
T1 sequence (Q06124 whole entry): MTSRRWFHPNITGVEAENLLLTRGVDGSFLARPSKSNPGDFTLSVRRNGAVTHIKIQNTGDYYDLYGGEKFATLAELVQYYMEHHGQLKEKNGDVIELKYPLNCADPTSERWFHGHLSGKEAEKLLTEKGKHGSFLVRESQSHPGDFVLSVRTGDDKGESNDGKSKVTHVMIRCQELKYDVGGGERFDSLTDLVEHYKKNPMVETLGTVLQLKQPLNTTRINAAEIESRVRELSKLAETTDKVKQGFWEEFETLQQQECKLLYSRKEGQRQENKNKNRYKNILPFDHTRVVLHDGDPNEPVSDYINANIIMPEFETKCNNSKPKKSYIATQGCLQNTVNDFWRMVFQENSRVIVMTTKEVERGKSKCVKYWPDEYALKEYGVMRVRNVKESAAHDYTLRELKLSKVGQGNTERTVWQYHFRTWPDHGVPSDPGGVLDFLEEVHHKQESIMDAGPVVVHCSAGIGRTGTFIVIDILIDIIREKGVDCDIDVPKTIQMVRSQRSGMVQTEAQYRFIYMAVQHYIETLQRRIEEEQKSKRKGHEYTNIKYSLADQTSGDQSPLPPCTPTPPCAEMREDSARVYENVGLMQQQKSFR

[2] = target: T1, Tyrosine-protein phosphatase non-receptor type 11; experiment: Inhibition of full length wild type recombinant human SHP2 (1 to 525 residues) using DIPMUP as substrate preincubated for 30 mins followed by substrate addition and measured after 30 mins by fluorescence based analysis
[3] = target: Tyrosine-protein phosphatase non-receptor type 11 (Homo sapiens, UniProt Q06124, E76K); experiment: Inhibition of full length recombinant human SHP2 E76K mutant (1 to 525 residues) using DIPMUP as substrate preincubated for 30 mins followed by substrate addition and measured after 30 mins by fluorescence based analysis
[4] = Inhibition of full length recombinant human SHP2 E76A mutant (1 to 525 residues) using DIPMUP as substrate preincubated for 30 mins followed by substrate addition and measured after 30 mins by fluorescence based analysis
[5] = target: T1, Tyrosine-protein phosphatase non-receptor type 11; experiment: Inhibition of recombinant human SHP2 PTPase activity (219 to 525 residues) using DIPMUP as substrate preincubated for 30 mins followed by substrate addition and measured after 30 mins by fluorescence based analysis
[6] = target: Tyrosine-protein phosphatase non-receptor type 6 (Homo sapiens, UniProt P29350); experiment: Inhibition of full length recombinant human SHP1 (1 to 570 residues) using DIPMUP as substrate preincubated for 30 mins followed by substrate addition and measured after 30 mins by fluorescence based analysis
NCI-H358 = experiment: Antiproliferative activity against human NCI-H358 cells assessed as inhibition of cell growth measured after 72 hrs by CCK8 method; type: functional, cell-based; conditions: NCI-H358, 72 h
MV4-11 [7] = experiment: Antiproliferative activity against human MV4-11 cells assessed as inhibition of cell growth measured after 72 hrs by CCK8 method; type: functional, cell-based; conditions: MV4-11, 72 h
MDA-MB-468 = experiment: Antiproliferative activity against human MDA-MB-468 cells assessed as inhibition of cell growth measured after 72 hrs by CCK8 method; type: functional, cell-based; conditions: MDA-MB-468, 72 h
[8] = target: T2, Tyrosine-protein phosphatase non-receptor type 11 (Homo sapiens) (UniProt Q06124); experiment: Inhibition of SHP2 in human MV4-11 cells assessed as reduction in Akt phosphorylation level at upto 20 uM measured after 4 hrs by Western blot analysis; type: cell-based
T2 sequence (whole entry): T1 sequence (Q06124 whole entry)

[9] = target: T2, Tyrosine-protein phosphatase non-receptor type 11 (Homo sapiens); experiment: Inhibition of SHP2 in human MV4-11 cells assessed as reduction in Erk1/2 phosphorylation level at upto 20 uM measured after 4 hrs by Western blot analysis; type: cell-based
[10] = target: T2, Tyrosine-protein phosphatase non-receptor type 11 (Homo sapiens); experiment: Inhibition of SHP2 in human NCI-H358 cells assessed as reduction in Erk1/2 phosphorylation level at upto 20 uM measured after 8 hrs by Western blot analysis; type: cell-based
[11] = target: T2, Tyrosine-protein phosphatase non-receptor type 11 (Homo sapiens); experiment: Inhibition of SHP2 in human NCI-H358 cells assessed as reduction in Akt phosphorylation level at upto 20 uM measured after 8 hrs by Western blot analysis; type: cell-based
MV4-11 [12] = experiment: Induction of apoptosis in human MV4-11 cells assessed as viable cells at 2.5 uM measured after 4 hrs by Annexin V-FITC/7-AAD staining based flow cytometric analysis (reference value: 95.9%); type: functional; conditions: read-out: Activity
MV4-11 [13] = experiment: Induction of apoptosis in human MV4-11 cells assessed as early apoptotic cells at 1.25 uM measured after 4 hrs by Annexin V-FITC/7-AAD staining based flow cytometric analysis (reference value: 2.48%); type: functional
MV4-11 [14] = experiment: Induction of apoptosis in human MV4-11 cells assessed as early apoptotic cells at 2.5 uM measured after 4 hrs by Annexin V-FITC/7-AAD staining based flow cytometric analysis (reference value: 2.48%); type: functional
MV4-11 [15] = experiment: Induction of apoptosis in human MV4-11 cells assessed as late apoptotic cells at 1.25 uM measured after 4 hrs by Annexin V-FITC/7-AAD staining based flow cytometric analysis (reference value: 1.58%); type: functional
MV4-11 [16] = experiment: Induction of apoptosis in human MV4-11 cells assessed as late apoptotic cells at 2.5 uM measured after 4 hrs by Annexin V-FITC/7-AAD staining based flow cytometric analysis (reference value: 1.58%); type: functional
MV4-11 [17] = experiment: Induction of apoptosis in human MV4-11 cells assessed as viable cells at 5 uM measured after 1 hrs by Annexin V-FITC/7-AAD staining based flow cytometric analysis (reference value: 96.8%); type: functional; conditions: read-out: Activity
MV4-11 [18] = experiment: Induction of apoptosis in human MV4-11 cells assessed as viable cells at 5 uM measured after 2 hrs by Annexin V-FITC/7-AAD staining based flow cytometric analysis (reference value: 96.8%); type: functional; conditions: read-out: Activity
MV4-11 [19] = experiment: Induction of apoptosis in human MV4-11 cells assessed as viable cells at 5 uM measured after 4 hrs by Annexin V-FITC/7-AAD staining based flow cytometric analysis (reference value: 96.8%); type: functional; conditions: read-out: Activity
MV4-11 [20] = experiment: Induction of apoptosis in human MV4-11 cells assessed as early apoptotic cells at 5 uM measured after 2 hrs by Annexin V-FITC/7-AAD staining based flow cytometric analysis (reference value: 2.13%); type: functional
MV4-11 [21] = experiment: Induction of apoptosis in human MV4-11 cells assessed as early apoptotic cells at 5 uM measured after 4 hrs by Annexin V-FITC/7-AAD staining based flow cytometric analysis (reference value: 2.13%); type: functional
MV4-11 [22] = experiment: Induction of apoptosis in human MV4-11 cells assessed as late apoptotic cells at 5 uM measured after 1 hrs by Annexin V-FITC/7-AAD staining based flow cytometric analysis (reference value: 0.98%); type: functional
MV4-11 [23] = experiment: Induction of apoptosis in human MV4-11 cells assessed as late apoptotic cells at 5 uM measured after 2 hrs by Annexin V-FITC/7-AAD staining based flow cytometric analysis (reference value: 0.98%); type: functional
MV4-11 [24] = experiment: Induction of apoptosis in human MV4-11 cells assessed as necrotic cells at 5 uM measured after 4 hrs by Annexin V-FITC/7-AAD staining based flow cytometric analysis (reference value: 0.068%); type: functional

Sequence of Tyrosine-protein phosphatase non-receptor type 11 (Homo sapiens, UniProt Q06124, E76K) (Q06124 2-593 E76K limits assumed): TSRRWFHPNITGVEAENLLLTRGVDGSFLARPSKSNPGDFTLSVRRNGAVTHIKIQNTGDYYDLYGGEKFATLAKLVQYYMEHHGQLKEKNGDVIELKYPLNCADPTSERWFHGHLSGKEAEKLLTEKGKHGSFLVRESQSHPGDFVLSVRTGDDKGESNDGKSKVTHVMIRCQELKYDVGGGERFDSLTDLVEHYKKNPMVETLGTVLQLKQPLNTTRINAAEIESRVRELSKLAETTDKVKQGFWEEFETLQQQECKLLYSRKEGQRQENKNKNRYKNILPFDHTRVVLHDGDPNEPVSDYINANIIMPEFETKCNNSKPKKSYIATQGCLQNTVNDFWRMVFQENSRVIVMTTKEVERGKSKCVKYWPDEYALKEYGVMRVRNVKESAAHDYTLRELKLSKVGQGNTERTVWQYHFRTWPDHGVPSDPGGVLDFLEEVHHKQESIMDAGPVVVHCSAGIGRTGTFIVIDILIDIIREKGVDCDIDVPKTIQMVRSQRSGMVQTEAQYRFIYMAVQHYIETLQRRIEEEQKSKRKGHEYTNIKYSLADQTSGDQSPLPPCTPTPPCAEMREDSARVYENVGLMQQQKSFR
Sequence of Tyrosine-protein phosphatase non-receptor type 6 (P29350 whole entry, the tested form may be a part): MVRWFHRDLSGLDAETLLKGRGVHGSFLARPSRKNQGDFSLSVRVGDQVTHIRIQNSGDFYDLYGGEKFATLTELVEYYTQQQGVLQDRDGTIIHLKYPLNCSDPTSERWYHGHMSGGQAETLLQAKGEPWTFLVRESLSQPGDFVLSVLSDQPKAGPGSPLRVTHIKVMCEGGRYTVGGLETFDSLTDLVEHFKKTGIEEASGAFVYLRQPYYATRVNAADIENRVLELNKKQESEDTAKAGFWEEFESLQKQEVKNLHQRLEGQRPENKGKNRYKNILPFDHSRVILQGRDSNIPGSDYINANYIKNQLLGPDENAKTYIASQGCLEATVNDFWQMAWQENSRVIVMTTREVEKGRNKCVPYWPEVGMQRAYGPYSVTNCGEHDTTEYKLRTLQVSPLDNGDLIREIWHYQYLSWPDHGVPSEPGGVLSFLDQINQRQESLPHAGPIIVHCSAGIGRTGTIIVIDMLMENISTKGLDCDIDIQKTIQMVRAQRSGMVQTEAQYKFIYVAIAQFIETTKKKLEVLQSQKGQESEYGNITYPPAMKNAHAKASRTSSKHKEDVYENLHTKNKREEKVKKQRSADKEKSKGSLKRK

C[C@@H]1OCC2(CCN(c3nnc(Sc4cccc(Cl)c4Cl)s3)CC2)[C@@H]1N
IC50 [1]: 0.25 µM
IC50 [2]: 0.84 µM
IC50 [3]: 6.88 µM
IC50 [4]: 1.38 µM
IC50 [5]: > 50 µM
IC50 [6]: > 50 µM
IC50 (NCI-H358): 12 µM
IC50 (MV4-11 [7]): 3.85 µM
IC50 (MDA-MB-468): 14.6 µM
inhibition [8]: Active
inhibition [9]: Active
inhibition [10]: Active
inhibition [11]: Active
viability at 2.5 µM (MV4-11 [12]): 96.7%
Activity (MV4-11 [13]): 2.04%
Activity (MV4-11 [14]): 2.09%
Activity (MV4-11 [15]): 1.93%
Activity (MV4-11 [16]): 2.3%
viability at 5 µM (MV4-11 [17]): 90%
viability at 5 µM (MV4-11 [18]): 80.9%
viability at 5 µM (MV4-11 [19]): 80%
Activity (MV4-11 [20]): 10.9%
Activity (MV4-11 [21]): 10.8%
Activity (MV4-11 [22]): 4.39%
Activity (MV4-11 [23]): 7.03%
Activity (MV4-11 [24]): 1.38%
